Measured values as given in patent US7605175B2, “Inhibitors of cyclin-dependent kinases, compositions and uses related thereto” (GPC Biotech AG, priority 2001, dated 2009).
pIC50: −log10 of the molar value.

Tests used:
[1] = target: T1, Cdk2/cyclin E (Homo sapiens, UniProt P24941); assay: Biochemical kinase assay Cdk2/cyclin E; settings: Table 6
T1 construct: made in house; host or cells: Sf9 insect cells
In short: (§1)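 Sf9-expressed Cdk/cyclin heterodimers phosphorylate GST-Rb (residues 379–928, 40 μg) with 50 μM ATP plus [γ-33P]ATP, pH 7.5, 10% DMSO, 15 min at 30 °C. Compounds 1 nM–10 μM. 33P captured on glutathione-sepharose and scintillation-counted; activity relative to DMSO control after EDTA-background subtraction.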

[2] = target: T2, Cdk4/cyclin D1 (Homo sapiens, UniProt P11802); assay: Biochemical kinase assay Cdk4/cyclin D1; settings: Table 6
T2 construct: made in house; host or cells: Sf9 insect cells
In short: as §1

[3] = target: T3, Cdc2/cyclin B (Homo sapiens, UniProt P06493); assay: Biochemical kinase assay Cdc2/cyclin B; settings: Table 6
T3 construct: purchased
In short: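 Radiometric TCA-precipitation assay measuring [γ-32P]ATP incorporation into Histone H1 (20 μg); 50 μM ATP, 10% DMSO, Tris pH 7.5 with MgCl2 and DTT. Compounds at 1 nM to 10 μM; reaction 20 min at 30 °C, stopped with EDTA/ATP. Activity relative to DMSO control after subtracting 50 mM EDTA background.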

[4] = test system: HIV-1 ROJO; assay: Antiviral activity in PBMCs infected with HIV-1 ROJO (reverse transcriptase); format: cell-based; settings: for pIC50: Human immunodeficiency virus 1, PBMC, 168 h, read-out: IC50: 50% inhibition of virus replication measured by reverse transcriptase levels in the supernatant, HIV-1 ROJO, 7 days post infection
Procedure: (§2) The activity of the certain compounds of the invention was evaluated in peripheral blood mononuclear cells (PBMCs) infected with the low passage, clinical isolate HIV-1 ROJO to generate a measure of the efficacy of these compounds in acutely infected cells. The use of these normal human cells allows an estimate of the therapeutic index of these compounds to be made. Fresh PBMCs from two donors were pooled and stimulated with PHA-P for 48-72 hours. The cells were then cultured in the presence of IL-2 to maintain the cell division initiated by the mitogenic signal. The virus was added at a multiplicity of infection of 0.1. The cells were cultured for 7 days post infection prior to the evaluation of efficacy. Viral replication was measured by the level of reverse transcriptase activity in the supernatant and cytotoxicity was measured with the MTS assay.

[5] = Cytotoxicity in PBMCs (MTS assay); format: cell-based, human; settings: human
Procedure: as §2

[6] = test system: HCT-116 cells; assay: Calcein AM viability assay, HCT-116; format: cell-based; settings: Homo sapiens
Procedure: The potency of Cdk inhibitors, as measured by loss of cellular viability, was determined with the Calcein AM assay (Molecular Probes). Calcein AM is a substrate of intracellular esterases, which is cleaved only in viable cells to generate a fluorescent product that can be quantified with a fluorescent plate reader. The fluorescent signal is proportional to the number of viable cells, and thus loss of signal in response to the exposure of cells to Cdk inhibitors correlates with a loss of viability. This assay can distinguish cell cycle arrest, in which cells may still by viable, from loss of viability and is thus well suited for the evaluation of Cdk inhibitors. A compound that is a potent cytotoxic, may cause significant loss of cell viability in such assay.
Cellular IC50's were determined in the human colorectal carcinoma cell line, HCT-116, and the normal human fibroblast, IMR90. Protein adjusted IC50's were also determined in HCT-116.
HCT-116 or IMR90 cells were recovered from sub-confluent plates by trypsinization and 1,000 or 4,000 cells, respectively, were plated in 24-well dishes and incubated overnight at 37° C., 5% CO2. HCT-116 cells were cultured in RPMI-1640, 10% FCS, and IMR90 cells were cultured in Minimum Essential Medium-alpha, 10% FCS. After overnight incubation to allow adherence, the media was aspirated from each well and replaced with media containing a test compound at a concentration from 0 to 250 nM, spanning a total of 7 doses. The plates were returned to the incubator and cultured for an additional 72 hours (3 days). […] After 72-hours incubation with the test compound, the cells were washed twice with 1×PBS, taking special care to remove all residual buffer.
A 5 μM Calcein AM solution was prepared by dissolving a […] aliquot of Calcein (Molecular Probes catalog # C3100) in 50 μl DMSO. After the Calcein had completely dissolved (10 minutes at room temperature), it was diluted into 10 ml PBS. Calcein/PBS (0.5 ml) was added to each well. The plates were incubated for 75 minutes at 37° C. (protected from light) and the fluorescent signal was read on a fluorescent plate reader (excitation 485/20 and emission 530/25).

[7] = test system: HCT-116 cells; assay: BrdU incorporation assay; format: cell-based; settings: Homo sapiens, read-out: Brd U, concentration that inhibits BrdU incorporation by 50%
Procedure: This method measured the percentage of cells that incorporated the nucleotide analog, BrdU, into newly synthesized DNA as cells progressed through the S phase of the cell cycle. The inhibition of BrdU incorporation was used as a measure of a Cdk inhibitor's effect on S phase progression and DNA replication.
3 sets of HCT-116 cells (100,000 cells/set) were plated in T25 flasks and incubated with a test compound as above. Analysis was done at 24, 48, and 72 hours. BrdU was added to each T-25 flask from a stock of 10 mg/ml to a final concentration of 10 μM and the cells were incubated for an additional 16-18 hours at 37° C. The cells were then prepared for flow cytometric analysis according to manufacturer's protocol (BrdU Flow kit, BD-Pharmingen catalogue #2354KK) as follows:
Cells were harvested (adherent and floating) from the T25 flasks directly into Falcon 12×75 flow cytometric tubes as above followed by fixation and permeabilization with the addition of 100 μl of Cytofix/Cytoperm buffer (30 minutes, room temperature). The cells were then washed with 1 ml of Perm Wash buffer and the cell pellets were resuspended in 100 μl Cytoperm Plus buffer and incubated on ice for 10 minutes. The cells were then washed again with 1 ml of Perm Wash buffer and the fixation was repeated in 100 μl of Cytofix/Cyto Perm buffer for 10 minutes at room temperature. The cells were then washed with 1 ml of Perm Wash buffer. The cells were next treated for one hour at 37° C. with 100 μl DNase to expose incorporated BrdU followed by another wash step with 1 ml of Perm Wash buffer. […] Cells were protected from light and incubated at room temperature for 20-30 minutes. Following the incubation, the cells were washed with 1 ml of Perm Wash buffer, resuspended in 300 μl of 2% FBS in PBS, and analyzed on the flow cytometer. Results are presented in Table 2 as the concentration of compound (μM) that inhibits of BrdU incorporation by 50%.

[8] = test system: arrested HCT-116 cells; assay: Arrested cell assay, arrested HCT-116 tumor cells; format: cell-based; settings: Homo sapiens, serum-starved arrested cells, 72 hours, read-out: Arrested cell assay HCT IC50
Procedure: (§3) Cyclin-dependent kinase (Cdk) activity is required to promote the progression of cells through distinct phases of the cell division cycle. The proliferation of normal, non-transformed, cells in culture requires the presence of growth factors, the removal of which, through serum deprivation, leads to a loss of Cdk activity and consequent exit from the cell cycle as cells enter the quiescent phase, G0.
HCT-116 cells were plated in triplicate for each compound concentration to be tested in RPMI 1640 media containing 10% fetal calf serum at a density of either 200 or 2,000 cells per well in 24 well dishes, and incubated overnight at 37° C., 5% CO2. The media from the plate containing 2,000 cells per well was removed, cells were washed once with serum free media and 1 ml of serum free media was placed on cells. The plates containing cells both in the presence and absence of serum were incubated for 6 additional days.
(§4) The cells are incubated in the presence of the compounds for 72 hours (3 days) at 37° C. […] Cycling and arrested HCT-116 cells as well as cycling IMR90 cells were exposed to a panel of 6 doses ranging from 5 to 250 nM. For arrested normal cells, the range of doses was increased to 50 nM to 25 μM, to compensate for the expected decrease in activity.
(§5) The effect of 72 hours of compound exposure on cellular viability was assessed in the Calcein AM assay. Calcein AM is a fluorescent substrate of intracellular esterases that are only active in viable cells. Cleavage of the substrate thus provides a measure of viability, which is proportional to cell number.
(§6) A Calcein AM stock solution was prepared by dissolving a 50 μg aliquot (Molecular Probes catalogue # C3100) in 50 μl DMSO. The tube was incubated at room temperature for approximately 10 minutes to ensure that the Calcein had dissolved completely. The calcein was diluted into 10 ml PBS to prepare the final solution, which was protected from light.
(§7) The media was aspirated off the cells, which were then washed twice with 1 ml PBS to remove the PBS completely from cells by aspiration. 0.5 ml of the Calcein/PBS solution was transferred by pipette into each well. The plates were incubated at 37° C. for 75 minutes (protected from light) and read on a fluorescent plate reader (excitation 485/20 and emission 530/25).

[9] = test system: arrested IMR90 cells; assay: Arrested cell assay, arrested IMR90 normal cells; format: cell-based; settings: Homo sapiens, IMR-90; serum-starved arrested cells, 72 hours; read-out: Arrested cell assay IMR90 IC50
Procedure: as §3
IMR90 cells were plated in triplicate for each compound concentration to be tested in MEM-A media containing 10% fetal calf serum at a density of either 2,000 or 20,000 cells per well in 24-well dishes and incubated overnight at 37° C., 5% CO2. The media was removed from the 20,000 cell-per-well dish, cells were washed once with serum-free media, and serum-free media was placed on cells. The plates containing cells both in the presence and absence of serum were incubated for 3 additional days.
as §4, §5, §6, §7

[10] = HCT-116, non-protein adjusted, Table 6, read-out: HCT-116 viability IC50
[11] = HCT-116, 72 h, Calcein AM, 72 hours, read-out: HCT-116 IC50 Viability
[12] = HCT-116, plus 1 mg/ml alpha acidic glycoprotein and 45 mg/ml human serum albumin, read-out: HCT-116 IC50 Protein adjusted

T3 sequence (P06493 whole entry, species assumed): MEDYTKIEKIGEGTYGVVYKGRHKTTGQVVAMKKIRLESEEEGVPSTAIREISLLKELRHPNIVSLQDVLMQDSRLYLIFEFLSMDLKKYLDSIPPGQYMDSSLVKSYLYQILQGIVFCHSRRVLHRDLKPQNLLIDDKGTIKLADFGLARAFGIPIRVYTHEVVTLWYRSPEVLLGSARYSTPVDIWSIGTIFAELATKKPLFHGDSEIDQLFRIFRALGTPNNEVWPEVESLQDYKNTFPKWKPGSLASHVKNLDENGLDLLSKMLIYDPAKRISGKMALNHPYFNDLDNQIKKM
T3 sequence (P14635 whole entry partner, species assumed): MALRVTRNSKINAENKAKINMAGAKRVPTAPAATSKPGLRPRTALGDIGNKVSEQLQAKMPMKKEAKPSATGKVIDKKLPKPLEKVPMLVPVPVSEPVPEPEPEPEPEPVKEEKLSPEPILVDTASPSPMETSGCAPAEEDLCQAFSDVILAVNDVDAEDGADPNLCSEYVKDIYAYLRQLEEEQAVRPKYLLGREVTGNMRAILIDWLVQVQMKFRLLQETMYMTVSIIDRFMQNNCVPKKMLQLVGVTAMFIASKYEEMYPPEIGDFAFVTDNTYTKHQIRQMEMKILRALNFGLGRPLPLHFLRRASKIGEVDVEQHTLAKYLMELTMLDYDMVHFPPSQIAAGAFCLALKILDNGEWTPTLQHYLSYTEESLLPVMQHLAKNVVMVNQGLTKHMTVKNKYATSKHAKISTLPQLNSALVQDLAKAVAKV
T2 sequence (P11802 whole entry, species assumed): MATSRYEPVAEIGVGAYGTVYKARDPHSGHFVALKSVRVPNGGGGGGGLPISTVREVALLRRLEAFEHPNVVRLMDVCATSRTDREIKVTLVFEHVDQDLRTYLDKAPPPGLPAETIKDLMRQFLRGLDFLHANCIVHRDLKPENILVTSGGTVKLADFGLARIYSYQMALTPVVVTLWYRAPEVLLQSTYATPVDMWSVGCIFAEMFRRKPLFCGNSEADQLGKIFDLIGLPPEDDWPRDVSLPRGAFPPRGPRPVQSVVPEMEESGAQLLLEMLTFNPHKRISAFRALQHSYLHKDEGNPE
T2 sequence (P24385 whole entry partner, species assumed): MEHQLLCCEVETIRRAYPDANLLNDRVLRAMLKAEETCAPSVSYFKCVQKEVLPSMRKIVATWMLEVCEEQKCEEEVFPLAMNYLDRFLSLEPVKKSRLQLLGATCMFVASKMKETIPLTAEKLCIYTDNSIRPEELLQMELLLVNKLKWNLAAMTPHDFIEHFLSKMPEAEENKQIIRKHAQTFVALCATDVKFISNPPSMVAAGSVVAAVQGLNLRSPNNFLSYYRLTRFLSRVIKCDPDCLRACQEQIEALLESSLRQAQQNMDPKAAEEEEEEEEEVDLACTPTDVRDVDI

| Compound | pIC50 ([7]; HCT-116, 24 h) | pIC50 [6, 11] | pIC50 [8] | pIC50 [9] | pIC50 ([7]; HCT-116, 48 h) | other results |
| --- | --- | --- | --- | --- | --- | --- |
| CC(C)c1nn(-c2c(Cl)cc(Cl)cc2Cl)c2nc(Cc3ccc(OCCO)cc3)[nH]c(=O)c12 [Compound A61] | – | – | – | – | – | pIC50 [1]: > 7.00; pIC50 [2]: > 6.00; pIC50 [3]: > 7.00; TI: TC50/IC50 [4]: >10; pIC50 [4]: > 8.00; CC50 at 7 days [5]: < 0.1 µM |
| CC(C)c1nn(-c2c(Cl)cccc2Cl)c2nc(Cc3ccc(CN4CCCC4)c(O)c3)[nH]c(=O)c12.Cl [Compound C3] | – | – | – | – | – | pIC50 [6, 10]: > 7.00; pIC50 [1]: > 7.00; TI: TC50/IC50 [4]: >10; pIC50 [4]: > 8.00; CC50 at 7 days [5]: < 0.1 µM |
| CC(C)c1nn(-c2c(Cl)cc(Cl)cc2Cl)c2nc(Cc3ccc(CNC(CO)CO)n3C)[nH]c(=O)c12.Cl [Compound C4] | – | – | – | – | – | pIC50 [6, 10]: > 7.00; pIC50 [1]: > 8.00; TI: TC50/IC50 [4]: >1; pIC50 [4]: > 7.00; CC50 at 7 days [5]: < 0.1 µM |
| O=C(Nc1cccc2c1C(=O)c1c-2n[nH]c1-c1ccc(OCCN2CCCC2)cc1)NN1CCOCC1 [Compound I] | > 8.00 | > 7.00 | > 7.00 | < 6.00 | – | – |
| CN1CCN(NC(=O)Nc2cccc3c2C(=O)c2c-3n[nH]c2-c2ccc(OCCN3CCC[C@H]3CO)cc2)CC1 [Compound M] | – | > 7.00 | > 7.00 | < 6.00 | > 7.00 | – |
| CC(C)c1nn(-c2c(Cl)cc(Cl)cc2Cl)c2nc(Cc3ccc(NS(=O)(=O)CCCN4CCOCC4)cc3)[nH]c(=O)c12 [D] | – | – | > 8.00 | < 6.00 | > 7.00 | pIC50 ([7]; HCT-116, 72 h): > 7.00 |
| CN1CCN(NC(=O)Nc2cccc3c2C(=O)c2c-3n[nH]c2-c2ccc(OCCN3CCCC3)cc2)CC1 [F] | – | – | – | < 6.00 | – | pIC50 ([7]; HCT-116, 72 h): > 6.00; pIC50 [6, 12]: > 7.00 |
| CCCN(CCOc1ccc(-c2[nH]nc3c2C(=O)c2c(NC(=O)NN4CCOCC4)cccc2-3)cc1)CC1CC1 [G] | > 8.00 | > 7.00 | > 7.00 | < 7.00 | – | – |
| O=C(Nc1cccc2c1C(=O)c1c-2n[nH]c1-c1ccc(OCCN(CCO)CCO)cc1)NN1CCOCC1 [H] | – | – | > 7.00 | < 6.00 | > 6.00 | pIC50 [6, 12]: > 6.00 |
| CC(C)N1CCN(Cc2cc(-c3[nH]nc4c3C(=O)c3c(NC(=O)NN5CCOCC5)cccc3-4)ccc2O)CC1 [K] | > 7.00 | > 7.00 | > 8.00 | < 6.00 | > 7.00 | – |
| Cc1cc(OCCN2CCCC2)ccc1-c1[nH]nc2c1C(=O)c1c(NC(=O)NN3CCN(C)CC3)cccc1-2 [L] | > 7.00 | > 7.00 | – | – | – | – |
| CN1CCN(NC(=O)Nc2cccc3c2C(=O)c2c-3n[nH]c2-c2ccc(OCCN3CC[C@H](O)C3)cc2)CC1 [O] | > 7.00 | – | > 7.00 | < 7.00 | – | pIC50 [6, 12]: > 6.00 |
| CN1CCN(NC(=O)Nc2cccc3c2C(=O)c2c-3n[nH]c2-c2ccc(OCCN3CCOCC3)cc2)CC1 [Q] | – | – | > 7.00 | < 7.00 | > 7.00 | – |
